The nature of assay [1]: NIH3T3 cell viability loss – ATP luminescence, mouse fibroblasts, counter-screen, dose response (AID 2010).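 Note: cells exposed to compound for about 90 hours before reading.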 In kind it is functional, cell-based. On the technique in general: Counterscreens check selectivity or assay interference.
Assay [2] concerns the target Mothers against decapentaplegic homolog 3 (Homo sapiens, UniProt P84022). Put plainly: inhibitors of SMAD-driven TGF-beta signaling – dose response (AID 715). In kind it is functional.
For assay [3], the system named is A-375. Put plainly: MITF: Counter assay: A375 proliferation Measured in Cell-Based System Using Plate Reader - 2084-03_Inhibitor_Dose_DryPowder_Activity. [Related pubchem assays (depositor defined):AID488944]. It is filed as functional. Particulars: Homo sapiens.
Assay [4] in a line: microbe, parasite or virus in culture. In kind it is functional. Particulars: Mycobacterium tuberculosis.
Assay [5] deals with T1, Insulin-degrading enzyme (Homo sapiens, UniProt P14735).
T1 sequence (P14735 whole entry): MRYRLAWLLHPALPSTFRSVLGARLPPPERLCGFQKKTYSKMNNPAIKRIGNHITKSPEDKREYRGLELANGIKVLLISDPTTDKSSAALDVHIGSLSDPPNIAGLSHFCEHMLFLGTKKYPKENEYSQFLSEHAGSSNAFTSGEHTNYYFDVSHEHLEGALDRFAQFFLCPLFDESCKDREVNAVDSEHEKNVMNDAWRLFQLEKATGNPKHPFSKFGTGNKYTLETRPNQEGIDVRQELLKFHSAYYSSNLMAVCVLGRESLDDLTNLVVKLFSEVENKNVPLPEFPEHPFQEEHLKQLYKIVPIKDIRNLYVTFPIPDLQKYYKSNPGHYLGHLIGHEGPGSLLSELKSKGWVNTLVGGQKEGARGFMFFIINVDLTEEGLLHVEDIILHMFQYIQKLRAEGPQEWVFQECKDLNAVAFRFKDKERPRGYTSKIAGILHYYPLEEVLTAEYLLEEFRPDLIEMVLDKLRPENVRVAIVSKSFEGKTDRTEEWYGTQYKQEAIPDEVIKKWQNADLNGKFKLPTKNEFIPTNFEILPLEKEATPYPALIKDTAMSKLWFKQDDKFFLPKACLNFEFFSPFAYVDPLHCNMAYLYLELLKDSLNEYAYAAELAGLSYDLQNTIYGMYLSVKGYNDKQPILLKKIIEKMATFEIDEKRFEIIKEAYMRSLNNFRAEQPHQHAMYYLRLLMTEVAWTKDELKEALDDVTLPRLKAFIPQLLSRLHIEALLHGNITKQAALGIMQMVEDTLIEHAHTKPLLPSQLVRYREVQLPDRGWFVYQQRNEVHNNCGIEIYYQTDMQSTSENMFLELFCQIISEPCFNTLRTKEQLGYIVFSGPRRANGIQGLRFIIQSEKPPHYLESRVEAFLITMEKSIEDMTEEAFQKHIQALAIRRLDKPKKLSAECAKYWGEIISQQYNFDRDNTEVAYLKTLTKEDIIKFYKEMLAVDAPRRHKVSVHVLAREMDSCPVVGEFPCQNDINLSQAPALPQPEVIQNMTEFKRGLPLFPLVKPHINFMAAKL
Put plainly: recombinant IDE activation, cell-free – biochemical, fluorescence polarization, counter-screen for IDE activator project, dose response (AID 588681).

Assay [6] has as its system BJ. Put plainly: BJ-TERT-LT-ST fibroblast viability loss – cell-based, RAS-independent, luminescence, dose response (AID 1935).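 Note: BJ fibroblasts immortalized with TERT plus LT and ST oncogenes.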 Particulars: Homo sapiens. In kind it is functional.
The target of assay [7] is T2, Ubiquitin-conjugating enzyme E2 N (Homo sapiens, UniProt P61088).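 Note: Dose-response confirmation in a TR-FRET assay detecting UBC13-driven polyubiquitin chain formation, inhibition measured.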
T2 sequence (P61088 whole entry): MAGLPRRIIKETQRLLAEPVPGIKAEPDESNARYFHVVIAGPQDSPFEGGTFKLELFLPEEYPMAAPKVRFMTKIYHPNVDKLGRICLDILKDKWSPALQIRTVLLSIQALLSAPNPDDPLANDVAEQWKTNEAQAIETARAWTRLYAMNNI
In kind it is functional.

For assay [8], the target named is High affinity nerve growth factor receptor (Homo sapiens, UniProt P04629). It is filed as functional.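 Note: NTRK1 tested as one member of a kinome-wide profiling panel.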
Assay [9] concerns the target Cyclin-dependent kinase 9 (Homo sapiens, UniProt P50750). In kind it is functional.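 Note: value from the CDK9 entry of a kinome-spanning kinase panel.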
For assay [10], the target named is Platelet-derived growth factor receptor beta (Homo sapiens, UniProt P09619). It is filed as functional.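 Note: value comes from a kinome panel, with PDGFRB tested as one panel member.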
Assay [11] has as its target G protein-coupled receptor kinase 5 (Homo sapiens, UniProt P34947). The assay can be described thus: Navigating the Kinome. Panel member name: GPRK5. It is filed as functional.
The target in assay [12] is Casein kinase I isoform alpha (Homo sapiens, UniProt P48729). In kind it is functional.
In assay [13] the target is Serine/threonine-protein phosphatase PP1-alpha catalytic subunit (Homo sapiens, UniProt P62136). Put plainly: inhibition of protein phosphatase 1 activity – biochemical, fluorescence, dose response (AID 2394).
For assay [14], the target named is T3, Mannose-6-phosphate isomerase (Homo sapiens, UniProt P34949).
T3 sequence (P34949 whole entry): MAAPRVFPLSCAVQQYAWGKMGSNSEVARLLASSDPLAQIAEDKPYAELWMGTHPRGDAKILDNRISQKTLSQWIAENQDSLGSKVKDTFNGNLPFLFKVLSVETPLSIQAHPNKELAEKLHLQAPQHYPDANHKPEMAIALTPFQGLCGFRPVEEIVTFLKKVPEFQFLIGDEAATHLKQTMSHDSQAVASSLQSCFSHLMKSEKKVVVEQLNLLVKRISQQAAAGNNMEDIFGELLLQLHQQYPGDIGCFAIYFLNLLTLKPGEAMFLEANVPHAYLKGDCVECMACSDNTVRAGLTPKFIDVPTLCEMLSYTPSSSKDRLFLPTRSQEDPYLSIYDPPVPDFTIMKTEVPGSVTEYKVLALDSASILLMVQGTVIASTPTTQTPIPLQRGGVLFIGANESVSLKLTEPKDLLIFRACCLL
The assay can be described thus: MPI enzyme activity inhibition – biochemical, fluorescence intensity, coupled assay, primary screen (AID 1209).

Activity calls are given as the source filed them.

Sequence of Serine/threonine-protein phosphatase PP1-alpha catalytic subunit (P62136 whole entry): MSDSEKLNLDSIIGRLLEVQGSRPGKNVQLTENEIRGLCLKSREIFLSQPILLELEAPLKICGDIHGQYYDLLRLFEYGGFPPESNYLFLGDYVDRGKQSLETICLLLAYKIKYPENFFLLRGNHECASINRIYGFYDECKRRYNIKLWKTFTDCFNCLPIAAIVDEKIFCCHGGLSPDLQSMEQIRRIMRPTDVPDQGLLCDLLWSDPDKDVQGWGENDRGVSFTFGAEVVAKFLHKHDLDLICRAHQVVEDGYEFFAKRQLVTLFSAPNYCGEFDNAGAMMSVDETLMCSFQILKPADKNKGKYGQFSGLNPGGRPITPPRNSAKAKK
Sequence of Mothers against decapentaplegic homolog 3 (P84022 whole entry): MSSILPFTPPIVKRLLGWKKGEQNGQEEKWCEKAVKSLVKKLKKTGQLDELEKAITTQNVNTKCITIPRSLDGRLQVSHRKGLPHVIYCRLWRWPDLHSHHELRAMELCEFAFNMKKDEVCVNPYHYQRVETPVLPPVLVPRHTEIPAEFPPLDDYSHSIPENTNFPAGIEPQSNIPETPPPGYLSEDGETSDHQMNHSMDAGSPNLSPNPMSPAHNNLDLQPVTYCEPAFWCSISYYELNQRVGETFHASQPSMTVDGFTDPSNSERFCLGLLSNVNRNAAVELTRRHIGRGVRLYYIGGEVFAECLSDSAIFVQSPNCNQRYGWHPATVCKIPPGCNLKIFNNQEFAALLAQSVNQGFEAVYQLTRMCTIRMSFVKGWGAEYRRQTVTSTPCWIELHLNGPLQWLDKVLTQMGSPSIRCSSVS
Sequence of Casein kinase I isoform alpha (P48729 whole entry, canonical isoform): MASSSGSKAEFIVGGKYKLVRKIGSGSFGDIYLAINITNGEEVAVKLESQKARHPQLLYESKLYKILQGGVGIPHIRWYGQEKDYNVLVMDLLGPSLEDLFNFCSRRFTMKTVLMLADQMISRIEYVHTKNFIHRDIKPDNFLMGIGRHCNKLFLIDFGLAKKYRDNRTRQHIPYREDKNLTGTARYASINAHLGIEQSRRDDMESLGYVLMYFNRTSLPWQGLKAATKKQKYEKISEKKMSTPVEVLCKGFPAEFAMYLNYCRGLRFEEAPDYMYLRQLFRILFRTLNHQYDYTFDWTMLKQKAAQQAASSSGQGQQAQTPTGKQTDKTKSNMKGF
Sequence of Platelet-derived growth factor receptor beta (P09619 whole entry): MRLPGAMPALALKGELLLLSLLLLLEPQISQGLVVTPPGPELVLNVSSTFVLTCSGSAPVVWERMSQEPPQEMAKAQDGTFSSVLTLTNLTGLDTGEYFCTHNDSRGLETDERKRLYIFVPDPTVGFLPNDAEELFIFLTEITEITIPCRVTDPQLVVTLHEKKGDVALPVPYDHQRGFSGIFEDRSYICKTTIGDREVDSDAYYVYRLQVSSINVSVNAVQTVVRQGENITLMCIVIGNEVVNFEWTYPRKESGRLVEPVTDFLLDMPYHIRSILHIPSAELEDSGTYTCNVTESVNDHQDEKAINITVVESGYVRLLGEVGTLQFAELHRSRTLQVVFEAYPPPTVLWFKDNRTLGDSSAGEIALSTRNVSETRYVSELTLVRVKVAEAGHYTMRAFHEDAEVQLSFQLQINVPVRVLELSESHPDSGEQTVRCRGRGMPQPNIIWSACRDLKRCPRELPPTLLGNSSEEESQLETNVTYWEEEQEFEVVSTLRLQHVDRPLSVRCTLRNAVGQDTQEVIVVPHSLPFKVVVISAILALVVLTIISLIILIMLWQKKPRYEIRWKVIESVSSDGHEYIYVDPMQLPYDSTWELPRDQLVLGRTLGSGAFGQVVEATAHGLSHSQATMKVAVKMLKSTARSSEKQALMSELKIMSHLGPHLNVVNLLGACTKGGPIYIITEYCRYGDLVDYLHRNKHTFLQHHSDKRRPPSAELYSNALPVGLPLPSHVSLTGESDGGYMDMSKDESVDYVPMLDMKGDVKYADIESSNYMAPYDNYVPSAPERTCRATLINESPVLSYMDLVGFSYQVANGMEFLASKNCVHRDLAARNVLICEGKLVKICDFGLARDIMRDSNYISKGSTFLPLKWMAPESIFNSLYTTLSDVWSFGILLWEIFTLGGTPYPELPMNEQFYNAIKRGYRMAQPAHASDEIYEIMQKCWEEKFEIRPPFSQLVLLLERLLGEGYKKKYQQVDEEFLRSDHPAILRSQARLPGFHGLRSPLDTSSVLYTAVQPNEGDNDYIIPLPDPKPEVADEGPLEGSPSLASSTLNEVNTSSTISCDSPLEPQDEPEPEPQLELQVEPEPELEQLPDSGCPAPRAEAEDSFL
Sequence of G protein-coupled receptor kinase 5 (P34947 whole entry, canonical isoform): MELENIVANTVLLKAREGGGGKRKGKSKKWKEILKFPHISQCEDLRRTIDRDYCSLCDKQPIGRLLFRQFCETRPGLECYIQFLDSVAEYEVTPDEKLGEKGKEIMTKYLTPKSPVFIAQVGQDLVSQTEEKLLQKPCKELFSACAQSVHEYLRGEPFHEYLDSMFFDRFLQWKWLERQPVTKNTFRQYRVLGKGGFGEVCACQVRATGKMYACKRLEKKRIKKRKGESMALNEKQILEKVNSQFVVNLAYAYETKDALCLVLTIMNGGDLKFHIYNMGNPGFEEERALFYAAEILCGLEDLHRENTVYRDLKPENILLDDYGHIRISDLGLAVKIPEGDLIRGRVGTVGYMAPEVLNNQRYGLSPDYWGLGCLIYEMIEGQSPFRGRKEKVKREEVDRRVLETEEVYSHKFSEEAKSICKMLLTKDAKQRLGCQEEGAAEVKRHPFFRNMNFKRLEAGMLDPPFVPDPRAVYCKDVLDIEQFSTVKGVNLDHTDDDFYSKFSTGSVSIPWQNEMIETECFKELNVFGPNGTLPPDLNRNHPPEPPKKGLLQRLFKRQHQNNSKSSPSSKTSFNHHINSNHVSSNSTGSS
Sequence of High affinity nerve growth factor receptor (P04629 whole entry): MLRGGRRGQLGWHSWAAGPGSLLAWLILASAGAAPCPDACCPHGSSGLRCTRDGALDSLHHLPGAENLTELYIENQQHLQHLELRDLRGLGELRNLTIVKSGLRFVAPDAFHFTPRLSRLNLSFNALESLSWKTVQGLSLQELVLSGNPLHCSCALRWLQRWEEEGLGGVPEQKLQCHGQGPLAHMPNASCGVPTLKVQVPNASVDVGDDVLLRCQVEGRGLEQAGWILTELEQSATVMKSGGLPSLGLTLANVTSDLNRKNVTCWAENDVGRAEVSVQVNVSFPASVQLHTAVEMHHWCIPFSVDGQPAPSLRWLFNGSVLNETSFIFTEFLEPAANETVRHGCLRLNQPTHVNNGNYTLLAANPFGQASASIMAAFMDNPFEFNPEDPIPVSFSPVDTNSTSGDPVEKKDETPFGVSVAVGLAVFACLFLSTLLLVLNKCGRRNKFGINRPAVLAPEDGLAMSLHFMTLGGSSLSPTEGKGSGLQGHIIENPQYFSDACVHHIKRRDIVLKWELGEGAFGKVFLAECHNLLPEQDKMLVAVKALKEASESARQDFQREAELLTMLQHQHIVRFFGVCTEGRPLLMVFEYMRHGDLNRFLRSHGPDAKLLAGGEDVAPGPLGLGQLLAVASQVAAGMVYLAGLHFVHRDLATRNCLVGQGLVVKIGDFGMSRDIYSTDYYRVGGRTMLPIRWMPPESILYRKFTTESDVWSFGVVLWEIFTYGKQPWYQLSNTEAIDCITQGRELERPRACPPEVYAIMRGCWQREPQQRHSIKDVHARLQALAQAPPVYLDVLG
Sequence of Cyclin-dependent kinase 9 (P50750 whole entry): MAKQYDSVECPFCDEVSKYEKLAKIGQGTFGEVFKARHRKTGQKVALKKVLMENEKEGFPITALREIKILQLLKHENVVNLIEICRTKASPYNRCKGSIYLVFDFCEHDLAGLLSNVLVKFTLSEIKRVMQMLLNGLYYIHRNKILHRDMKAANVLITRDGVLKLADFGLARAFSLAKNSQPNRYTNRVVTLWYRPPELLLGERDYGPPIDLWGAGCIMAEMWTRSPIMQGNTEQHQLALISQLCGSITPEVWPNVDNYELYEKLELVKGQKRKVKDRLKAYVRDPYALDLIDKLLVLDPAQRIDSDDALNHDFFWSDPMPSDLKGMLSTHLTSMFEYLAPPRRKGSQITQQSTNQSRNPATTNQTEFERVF

As to `CC(C)CC(=O)NC(c1cccs1)c1ccc2cccnc2c1O` (centres undefined), the half-maximal effective concentration (EC50) (in general, the concentration needed to bring the measured effect to its halfway point) in assay [1] was 1.48 µM (active). For the compound `CCOC(=O)c1ccc(NC2=CC(=O)C(=O)c3ccccc32)cc1`, the IC50 (in general, the concentration at which inhibition is half-maximal) in assay [2] was 2.81 µM (active). Further, in assay [3], the AC50 (as a rule, the midpoint of the concentration-response curve, whichever way the signal moves) is 6.65 µM (active). The CC50 in [4] is 21.1 µM (active). In the case of `OC(CNCCC1C=Nc2ccccc21)Cn1c2ccc(Cl)cc2c2cc(Cl)ccc21` (centres undefined), the EC50 is > 54.7 µM (inactive) in assay [5] and 5.42 µM (inconclusive) in assay [6]. `CCCCCCCCCCCCCCCC[N+](C)(C)C`: the IC50 in assay [7] was > 20 µM (inactive). With `NC1CCC(Nc2nc(Cl)cc(-c3c[nH]c4ncccc34)n2)CC1` (centres undefined), in assay [8], the Ki (commonly a dissociation constant, usually derived from enzyme kinetics or from competition with a known ligand) is > 3.16 µM (inactive). Consider `O=C(O)C1CN(Cc2ccc(OCc3ccccc3)cc2Cl)C1`, for which the Ki is > 1.58 µM (inactive) in assay [9], > 2 µM (inactive) in [10], > 3.98 µM (inactive) in [11] and > 3.98 µM (inactive) in [12]. Turning to `COc1ccc(C(=O)c2nccc3cc(OC)c(OC)cc23)cc1OC`, in [13], the IC50 is given as > 67 µM (not active).

As for `Cc1ccccc1-c1cc2c(nn1)-c1ccccc1C2=O`, the IC50 in [14] is on record as > 50 µM (not active).

For the origin of these results see ChEMBL document CHEMBL1201862, “PubChem BioAssay data set” (2004).
